Source: patent publication US12329753B2, “Phosphodiesterase inhibitor treatment” (Cyrano Therapeutics, Inc., priority 2008, dated 2025)
Marks after values point to notes of the source that are not given here.

Tests used:
[1] = system: patients with hyposmia; test: Hedonic (H) value of odors, -100-0-+100 scale, open trial of oral theophylline; format: in vivo, human
Method: In addition, each patient graded the hedonic (H) value of each odor presented for these same odor concentrations (from 10^−2M—an absolute odor concentration using a −100-0-+100 scale). […] Results were obtained by calculating the arithmetical sum of each correct recognition response for each odor with respect to its pleasantness, unpleasantness or neutrality. Arithmetic M±SEM were obtained for each treatment group for each odor presented.
After determination of hyposmia, patients were treated in an open label, fixed design, controlled open trial. Patients were given an oral extended release theophylline in divided daily doses taken in the middle of breakfast and lunch. All patients were initially given 200 mg of theophylline; changes in this dose were made based upon subjective responses to therapy. If at a subsequent return visit, patients reported ≥5% subjective improvement in overall smell function, they continued on this same dose of theophylline and were reevaluated after four to six months of continued treatment. Results from any subsequent return from these improved patients were not included in any subsequent data report. All subsequent comparisons between treated and untreated patients were made only between those patients continuing in the study compared to their own measurements obtained in the untreated state. If patients reported <5% subjective improvement, their theophylline dose was increased by 200 mg daily and they were scheduled for retesting at the study site after two to four months at this new dosage. For patients that reported <5% improvement, this sequence continued until patients reached 800 mg of theophylline, at which time the study was considered completed.
Patients returned for reevaluation after two to four months of treatment. Measurements of blood serum theophylline were measured by a fluorescence polarization assay (Abbott, Chicago, IL). At this time, subjective changes in smell function were measured independently (compared to patient's memory of previous normal smell function monitored by use of the patients' daily measurements) using the scale from −100-0-+100 previously described (vs). After independently recording their subjective responses, smell function was measured for all four odors with DT, RT, ME and H determined without recourse to prior measurements.

[2] = system: cGMP; test: Parotid saliva cGMP, 96 plate spectrophotometric assay; format: in vivo, human; details: for saliva cGMP over initial values: improved patients; for change of saliva cGMP: unimproved patients
Method: Parotid saliva was collected from each patient by application of a Lashley cup over Stensen's duct with lingual stimulation by placement of concentrated lemon juice. Saliva was collected in plastic tubes and stored at −20° C. until assayed. cAMP and cGMP were measured in saliva by a sensitive 96 plate spectrophotometric assay (R&D Systems, Minneapolis, MN).
All patients were placed in a fixed design open label clinical trial with treatment with oral theophylline. Treatment consisted of fixed treatment periods of two-eight months with sequential doses of the drug at 200 mg, 400 mg and 600 mg. At termination of each of these intervals, patients returned to study site for reevaluation. At the end of each interval subjective responses to treatment were measured with a modification of the 0-100 scale previously used (vs). Subjective responses to treatment were graded on a sliding scale from −100-0-+100 with patients recording improvement (+0-+100), no improvement (0) or worsening (0—-100) of their overall smell function. If overall smell function improved ≥5% they were considered to improve clinically (1). If smell function improved <5% they were considered not to improve (1). At the end of each interval subjective measurements of smell function, measurements of DT, RT, ME and H and measurements of parotid saliva for levels of cAMP and cGMP were obtained. In addition, blood plasma was obtained by venipuncture, placed in ice into zinc free tubes which contained 100 mg zinc free heparin, centrifuged at 3000 rpm for 10-20 min, the plasma transferred to plastic PCR tubes and stored at −20° C. until assayed. Theophylline was assayed by a fluorescence polarization assay (Abbott, Chicago, IL), as previously described.
Data for the cyclic nucleotides from these 31 patients was not analyzed until the entire study of the 312 patients in Example 1 was assembled and analyzed in its entirety. After completion of these analyses, all data for parotid saliva cAMP and cGMP from all patients in whom salivary cAMP and cGMP were obtained were assembled. Levels of salivary cyclic nucleotides varied widely. Initially, without external criteria, there was no way to understand these disparate data. […] In a similar manner, measurements of each patient's plasma theophylline level at each dosage of theophylline (at 200 mg, 400 mg, 600 mg of theophylline) were catagorized. The two patient groups were also analyzed post hoc with respect to type of smell loss and etiology of smell loss.

[3] = oral 400 mg daily, 2-6 months, all patients (120), mean ± SEM
[4] = oral 600 mg daily, 2-12 months, all patients (160), mean ± SEM
[5] = oral 800 mg daily, 2-12 months, all patients (28), mean ± SEM
[6] = oral 800 mg, Type I hyposmia (12), mean ± SEM

Structure (SMILES): Cn1c(=O)c2[nH]cnc2n(C)c1=O [theophylline]
- increase in H, amyl acetate ([1]; oral 200 mg): 2%
- increase in H, nitrobenzene ([1]; oral 200 mg): 2%
- increase of H value, amyl acetate ([1]; oral 200 mg, not statistically significant): 50%
- change in H (more pleasant), amyl acetate ([1]; oral 400 mg): 1%
- change in H (more pleasant), nitrobenzene ([1]; oral 400 mg): 4%
- change in H, pyridine ([1]; oral 400 mg): 9%
- change in H, thiophene ([1]; oral 400 mg): 7%
- decrease of H value, thiophene ([1]; oral 400 mg): 40%
- hedonic estimation (H), amyl acetate [1, 3]: 3 ± 2^ %
- hedonic estimation (H), nitrobenzene [1, 3]: 8 ± 3^a %
- hedonic estimation (H), pyridine [1, 3]: −26 ± 3^b %
- hedonic estimation (H), thiophene [1, 3]: −19 ± 2^d %
- increase of H value, nitrobenzene ([1]; oral 400 mg, not statistically significant): 50%
- hedonic estimation (H), amyl acetate [1, 4]: 4 ± 1%
- hedonic estimation (H), nitrobenzene [1, 4]: 8 ± 2^d %
- hedonic estimation (H), pyridine [1, 4]: −19 ± 2 ^ %
- hedonic estimation (H), thiophene [1, 4]: −14 ± 2 ^ %
- decrease of H value, pyridine ([1]; oral 800 mg): 55%
- decrease of H value, thiophene ([1]; oral 800 mg): 37%
- increase of H value, amyl acetate ([1]; oral 800 mg): about 50%
- increase of H value, nitrobenzene ([1]; oral 800 mg): about 50%
- hedonic estimation (H), amyl acetate [1, 5]: 8 ± 5%
- hedonic estimation (H), nitrobenzene [1, 5]: 13 ± 7 ^ %
- hedonic estimation (H), pyridine [1, 5]: −22 ± 6%
- hedonic estimation (H), thiophene [1, 5]: −15 ± 4%
- hedonic value (row printed R), amyl acetate [1, 6]: −1 ± 4 ^ %
- hedonic value (row printed R), nitrobenzene [1, 6]: 2 ± 2^a %
- hedonic value (row printed R), pyridine [1, 6]: −11 ± 5^a %
- hedonic value (row printed R), thiophene [1, 6]: −4 ± 2^a %
- saliva cGMP over initial values ([2]; oral 400 mg): 275%
- change of saliva cGMP ([2]; oral 400 mg): little change
- saliva cGMP over initial values ([2]; oral 600 mg): 338%
- change of saliva cGMP ([2]; oral 600 mg): no increase
